Data reported in PMC7043280 (European journal of medicinal chemistry, 2018).

How the values were obtained:
NMDAR = details: cited from earlier work; for NMDAR agonist activity or effect on the holding current: ref Saptoka et al., 2017
[1] = tested on: GluN1/GluN2A-D diheteromeric NMDARs; experiment: TEVC electrophysiology, values stated in the text across several GluN2 subtypes; type: cell-based, rat
GluN1/GluN2A NMDAR [2] = target: T1, GluN1/GluN2A NMDAR (Rattus norvegicus, UniProt P35439+Q00959); experiment: TEVC electrophysiology on recombinant NMDA receptors; type: cell-based
[3] = tested on: GluN1/GluN2A-D diheteromeric NMDARs; details: cited from earlier work
GluN1/GluN2B NMDAR = GluN1/GluN2B NMDAR (Rattus norvegicus, UniProt P35439+Q00960); experiment: TEVC electrophysiology on recombinant NMDA receptors; type: cell-based; details: for fold greater inhibitory activity on GluN2B compared to 7: from IC50 values, Table 6
GluN1/GluN2D NMDAR = GluN1/GluN2D NMDAR (Rattus norvegicus, UniProt P35439+Q62645); experiment: as above; type: cell-based; details: for percentage maximum inhibition of the agonist response, GluN2D: value in parenthesis, ± s.e.m., L-glutamate 10 μM and glycine 10 μM
GluN1/GluN2C NMDAR = GluN1/GluN2C NMDAR (Rattus norvegicus, UniProt P35439+Q00961); experiment: as above; type: cell-based; details: from IC50 values, Table 6
GluN1/GluN2A NMDAR [4] = target: T1, GluN1/GluN2A NMDAR; details: ref 7a; cited from earlier work

T1 sequence (Q00959 23-1464, other chains not shown): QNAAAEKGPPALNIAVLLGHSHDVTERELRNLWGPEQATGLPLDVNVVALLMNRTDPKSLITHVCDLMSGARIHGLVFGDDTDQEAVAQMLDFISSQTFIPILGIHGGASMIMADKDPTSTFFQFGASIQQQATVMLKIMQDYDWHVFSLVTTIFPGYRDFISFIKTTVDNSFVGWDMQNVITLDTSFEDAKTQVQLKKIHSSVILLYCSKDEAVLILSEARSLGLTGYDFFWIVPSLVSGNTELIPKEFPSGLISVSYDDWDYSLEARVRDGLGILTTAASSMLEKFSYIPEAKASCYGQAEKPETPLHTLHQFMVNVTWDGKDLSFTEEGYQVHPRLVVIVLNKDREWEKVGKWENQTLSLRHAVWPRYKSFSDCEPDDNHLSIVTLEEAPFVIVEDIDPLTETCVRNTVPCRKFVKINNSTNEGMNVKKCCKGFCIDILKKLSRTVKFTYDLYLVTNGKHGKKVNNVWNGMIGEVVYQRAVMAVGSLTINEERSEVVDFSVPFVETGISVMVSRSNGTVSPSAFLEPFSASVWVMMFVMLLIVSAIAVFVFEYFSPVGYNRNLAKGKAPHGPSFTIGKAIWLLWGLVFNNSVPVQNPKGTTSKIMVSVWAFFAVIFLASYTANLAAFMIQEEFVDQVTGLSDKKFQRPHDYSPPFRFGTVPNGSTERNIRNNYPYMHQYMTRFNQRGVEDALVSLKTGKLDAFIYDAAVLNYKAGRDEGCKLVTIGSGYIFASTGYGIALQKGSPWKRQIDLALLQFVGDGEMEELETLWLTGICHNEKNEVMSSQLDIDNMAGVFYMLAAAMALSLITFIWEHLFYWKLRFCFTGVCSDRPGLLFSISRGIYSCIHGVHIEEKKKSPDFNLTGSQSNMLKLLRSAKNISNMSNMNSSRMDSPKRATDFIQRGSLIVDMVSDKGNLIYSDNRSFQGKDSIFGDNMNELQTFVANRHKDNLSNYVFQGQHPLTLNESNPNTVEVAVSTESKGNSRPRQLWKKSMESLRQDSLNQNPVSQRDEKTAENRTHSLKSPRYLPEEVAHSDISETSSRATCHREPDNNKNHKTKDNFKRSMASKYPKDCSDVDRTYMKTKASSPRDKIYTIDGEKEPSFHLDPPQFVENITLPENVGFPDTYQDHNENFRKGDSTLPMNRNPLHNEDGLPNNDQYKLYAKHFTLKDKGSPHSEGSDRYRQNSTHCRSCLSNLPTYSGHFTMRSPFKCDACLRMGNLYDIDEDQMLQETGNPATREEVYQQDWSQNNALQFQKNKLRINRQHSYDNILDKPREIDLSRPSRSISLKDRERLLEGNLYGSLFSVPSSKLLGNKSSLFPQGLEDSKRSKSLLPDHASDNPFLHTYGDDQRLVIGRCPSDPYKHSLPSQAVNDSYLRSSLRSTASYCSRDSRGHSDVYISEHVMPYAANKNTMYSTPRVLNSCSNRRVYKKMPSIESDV
Chain of GluN1/GluN2B NMDAR (Q00960 27-1482, other chains not shown): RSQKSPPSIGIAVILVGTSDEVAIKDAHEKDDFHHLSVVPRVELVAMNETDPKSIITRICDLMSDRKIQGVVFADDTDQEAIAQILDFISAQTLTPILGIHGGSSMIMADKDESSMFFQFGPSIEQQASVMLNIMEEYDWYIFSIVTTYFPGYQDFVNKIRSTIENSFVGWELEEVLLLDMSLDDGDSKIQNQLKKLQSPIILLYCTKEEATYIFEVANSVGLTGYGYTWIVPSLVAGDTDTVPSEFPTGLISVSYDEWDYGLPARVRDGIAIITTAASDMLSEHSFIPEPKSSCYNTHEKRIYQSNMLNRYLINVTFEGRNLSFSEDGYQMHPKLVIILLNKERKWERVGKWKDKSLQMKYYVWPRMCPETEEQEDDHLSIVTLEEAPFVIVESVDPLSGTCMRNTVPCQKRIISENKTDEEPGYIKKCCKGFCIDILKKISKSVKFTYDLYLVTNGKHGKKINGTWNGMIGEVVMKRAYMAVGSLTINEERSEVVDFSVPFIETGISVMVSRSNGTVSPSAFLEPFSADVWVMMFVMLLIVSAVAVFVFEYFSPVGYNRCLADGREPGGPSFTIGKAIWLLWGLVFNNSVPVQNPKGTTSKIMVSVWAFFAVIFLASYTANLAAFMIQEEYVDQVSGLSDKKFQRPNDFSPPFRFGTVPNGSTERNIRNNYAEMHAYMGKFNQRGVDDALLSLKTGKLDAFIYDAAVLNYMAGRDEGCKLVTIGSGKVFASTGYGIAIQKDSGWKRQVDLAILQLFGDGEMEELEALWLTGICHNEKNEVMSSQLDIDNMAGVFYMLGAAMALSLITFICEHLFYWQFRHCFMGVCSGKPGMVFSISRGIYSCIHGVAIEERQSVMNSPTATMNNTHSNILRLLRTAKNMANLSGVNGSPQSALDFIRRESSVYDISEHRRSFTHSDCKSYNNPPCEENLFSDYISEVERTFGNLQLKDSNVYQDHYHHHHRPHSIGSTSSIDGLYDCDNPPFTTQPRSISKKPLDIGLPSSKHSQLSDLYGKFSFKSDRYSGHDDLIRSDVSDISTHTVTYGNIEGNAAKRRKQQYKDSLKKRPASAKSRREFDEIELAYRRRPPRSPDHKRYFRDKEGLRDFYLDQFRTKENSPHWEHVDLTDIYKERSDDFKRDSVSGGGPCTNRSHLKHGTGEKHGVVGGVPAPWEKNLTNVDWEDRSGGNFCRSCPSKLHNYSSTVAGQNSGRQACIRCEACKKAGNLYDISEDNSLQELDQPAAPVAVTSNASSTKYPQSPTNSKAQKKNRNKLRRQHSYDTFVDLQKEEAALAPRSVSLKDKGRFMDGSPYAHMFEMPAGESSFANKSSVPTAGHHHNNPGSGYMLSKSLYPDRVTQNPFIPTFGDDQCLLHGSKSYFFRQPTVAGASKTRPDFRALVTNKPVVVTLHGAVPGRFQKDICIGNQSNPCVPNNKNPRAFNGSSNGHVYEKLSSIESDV
Chain of GluN1/GluN2D NMDAR (Q62645 28-1323, other chains not shown): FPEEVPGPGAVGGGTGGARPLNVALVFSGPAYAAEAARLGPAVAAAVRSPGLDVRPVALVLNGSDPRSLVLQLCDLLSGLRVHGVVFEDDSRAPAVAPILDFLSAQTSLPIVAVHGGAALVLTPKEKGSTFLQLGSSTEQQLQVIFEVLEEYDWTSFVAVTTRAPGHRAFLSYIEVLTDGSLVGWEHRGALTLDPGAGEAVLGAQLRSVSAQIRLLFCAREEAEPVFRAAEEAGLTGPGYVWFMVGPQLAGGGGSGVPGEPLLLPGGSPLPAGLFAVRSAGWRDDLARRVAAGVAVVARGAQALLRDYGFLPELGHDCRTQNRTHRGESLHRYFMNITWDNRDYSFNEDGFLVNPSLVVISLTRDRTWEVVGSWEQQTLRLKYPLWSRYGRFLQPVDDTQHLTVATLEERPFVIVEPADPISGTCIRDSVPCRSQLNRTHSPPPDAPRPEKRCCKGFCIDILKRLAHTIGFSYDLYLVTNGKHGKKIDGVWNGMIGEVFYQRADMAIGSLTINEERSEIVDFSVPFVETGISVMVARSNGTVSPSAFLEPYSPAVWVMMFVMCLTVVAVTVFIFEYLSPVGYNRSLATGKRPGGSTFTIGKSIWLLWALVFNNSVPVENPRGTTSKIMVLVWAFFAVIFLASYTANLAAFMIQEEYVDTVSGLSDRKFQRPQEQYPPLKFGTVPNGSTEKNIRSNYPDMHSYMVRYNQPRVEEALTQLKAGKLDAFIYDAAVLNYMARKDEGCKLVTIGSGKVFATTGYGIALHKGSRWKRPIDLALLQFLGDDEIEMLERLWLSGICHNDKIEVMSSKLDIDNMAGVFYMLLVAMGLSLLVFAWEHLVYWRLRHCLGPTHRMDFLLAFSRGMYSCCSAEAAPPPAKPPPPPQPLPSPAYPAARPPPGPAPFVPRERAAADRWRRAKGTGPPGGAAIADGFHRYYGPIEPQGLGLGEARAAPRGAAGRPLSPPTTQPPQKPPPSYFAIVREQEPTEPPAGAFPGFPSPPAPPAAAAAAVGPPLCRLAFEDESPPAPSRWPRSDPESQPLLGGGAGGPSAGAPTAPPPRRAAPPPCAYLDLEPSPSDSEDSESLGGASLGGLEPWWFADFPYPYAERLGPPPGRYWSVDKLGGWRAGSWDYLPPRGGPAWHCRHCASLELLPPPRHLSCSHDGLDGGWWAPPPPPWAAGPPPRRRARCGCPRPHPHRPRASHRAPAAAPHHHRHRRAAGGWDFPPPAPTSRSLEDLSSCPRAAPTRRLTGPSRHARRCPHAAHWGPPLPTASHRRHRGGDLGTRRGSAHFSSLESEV

Question: For `CC(C)CCC(C)c1ccc2cc(C(=O)O)ccc2c1` (racemic) [Compound 46, (RS)-6-(5-Methylhexan-2-yl)-2-naphthoic acid], which “NMDAR agonist activity or effect on the holding current” value (NMDAR) is on record?
Answer: no NMDAR agonist activity or effect on the holding current

Question: For `CCc1ccc2cc(C(=O)O)ccc2c1` [6-ethyl derivative], which “percentage inhibition on GluN2A-D” value ([1]; 100 μM, range over GluN2A-D) is on record?
Answer: 17–52%

Question: For `O=C(O)c1ccc2cc(I)ccc2c1` [6-iodo-2-naphthoic acid], which inhibition at 100 µM (GluN1/GluN2A NMDAR [2]; read-out: inhibition of the agonist response on GluN2A) is on record?
Answer: 26 ± 2%

Question: And the “inhibitory activity on GluN2B-D” value ([1]; 100 μM, range over GluN2B-D)?
Answer: 9–12%

Question: With `CCCc1ccc2cc(C(=O)O)ccc2c1` [6-n-propyl derivative] as the compound, how does the “percentage inhibition on GluN2A-D” value ([1]; 100 μM, range over GluN2A-D) read?
Answer: 0–14%

Question: Which “glutamate-site or glycine-site NMDAR agonist activity; activity in the absence of agonists” value (NMDAR) does the source give for `O=C(O)c1ccc2cc(I)c3ccccc3c2c1` [Compound 1, reference compound] here?
Answer: did not display glutamate-site or glycine-site NMDAR agonist activity

Question: For `O=C(O)c1cc2cc(-c3ccccc3)ccc2cc1O` [Compound 7, reference compound], which “maximal inhibition of GluN2A and GluN2B” value [3] is on record?
Answer: 57–72%

Question: What about the “glutamate-site or glycine-site NMDAR agonist activity; activity in the absence of agonists” value (NMDAR) of the same compound?
Answer: did not display glutamate-site or glycine-site NMDAR agonist activity

Question: Which results are given for `CC(C)CCCc1ccc2cc(C(=O)O)ccc2c1` [Compound 14b, 6-(4-Methylpent-1-yl)-2-naphthoic acid]?
Answer: potentiation across GluN2A-D ([1]; 100 μM): > 170%; EC50 ([1]; read-out: EC50 values across GluN2A-D, range over GluN2A-D): 28 to 37.2 µM; NMDAR agonist activity or effect on the holding current (NMDAR): no NMDAR agonist activity or effect on the holding current

Question: With `CCCCCc1ccc2cc(CC(=O)O)ccc2c1` [Compound 21, (6-n-Pent-1-ylnaphthalen-2-yl)acetic acid] as the compound, how does the “inhibition on at least one of the GluN1/GluN2 subtypes” value ([1]; 100 μM) read?
Answer: ≥ 50%

Question: For `CCCCOc1ccc2cc(C(=O)O)ccc2c1` [Compound 24, 6-Butoxy-2-naphthoic acid], which “inhibition on at least one of the GluN1/GluN2 subtypes” value ([1]; 100 μM) is on record?
Answer: ≥ 50%

Question: For `CC(C)CNC(=O)c1ccc2cc(C(=O)O)ccc2c1` [Compound 52, 6-(Isobutylcarbamoyl)-2-naphthoic acid], which “inhibition on at least one of the GluN1/GluN2 subtypes” value ([1]; 100 μM) is on record?
Answer: ≥ 50%

Question: Which “inhibition on at least one of the GluN1/GluN2 subtypes” value ([1]; 100 μM) does the source give for `CC(C)C(=O)OCc1ccc2cc(C(=O)O)ccc2c1` [Compound 54, 6-((Isobutyryloxy)methyl)-2-naphthoic acid] here?
Answer: ≥ 50%

Question: Which “inhibition on at least one of the GluN1/GluN2 subtypes” value ([1]; 100 μM) does the source give for `CC(C)COCc1ccc2cc(C(=O)O)ccc2c1` [Compound 57, 6-(Isobutoxymethyl)-2-naphthoic acid] here?
Answer: ≥ 50%

Question: Which “fold greater inhibitory activity on GluN2B compared to 7” value (GluN1/GluN2B NMDAR) does the source give for `O=C(O)c1cc2cc(/C=C/c3ccccc3)ccc2cc1O` [Compound 79a, (E)-3-Hydroxy-7-styryl-2-naphthoic acid] here?
Answer: ~ 10 fold

Question: And the “fold greater inhibitory activity on GluN2C and GluN2D compared to 7” value ([1]; GluN2C and GluN2D, from IC50 values, Table 6)?
Answer: 3–5 fold

Question: And the “maximal inhibition across GluN2A-D” value ([1]; range over GluN2A-D)?
Answer: 83–94%

Question: Which results are given for `O=C(O)c1cc2cc(/C=C/c3ccccc3[N+](=O)[O-])ccc2cc1O` [Compound 79h, (E)-3-Hydroxy-7-(2-nitrostyryl)-2-naphthoic acid]?
Answer: percentage maximum inhibition of the agonist response, GluN2A (GluN1/GluN2A NMDAR [2]; value in parenthesis, ± s.e.m., L-glutamate 10 μM and glycine 10 μM): 30%; fold higher IC50 on GluN2B compared to 79a (GluN1/GluN2B NMDAR): 4 fold; percentage maximum inhibition of the agonist response, GluN2D (GluN1/GluN2D NMDAR): 70–80%; fold lower IC50 on GluN2A and GluN2D compared to 79a ([1]; GluN2A and GluN2D): 3 fold; maximal inhibition of GluN2B-D ([1]; range over GluN2B-D): 60–80%

Question: What does the source list for `O=C(O)c1cc2cc(/C=C/c3cccc([N+](=O)[O-])c3)ccc2cc1O` [Compound 79i, (E)-3-Hydroxy-7-(3-nitrostyryl)-2-naphthoic acid]?
Answer: fold greater inhibitory activity on GluN2B compared to 7 (GluN1/GluN2B NMDAR): 10 fold; fold higher inhibitory activity on GluN2C compared to 7 (GluN1/GluN2C NMDAR): 5 fold; fold higher inhibitory activity on GluN2D compared to 7 (GluN1/GluN2D NMDAR; from IC50 values, Table 6): 35 fold; percentage maximum inhibition of the agonist response, GluN2D (GluN1/GluN2D NMDAR): 70–80%

Question: For `O=C(O)c1cc2cc(Br)ccc2oc1=O` [UBP608], which “selectivity for GluN2A over GluN2D” value (GluN1/GluN2A NMDAR [4]) is on record?
Answer: 23 fold
